Article PMC1399460, “Synthesis and glycosidase inhibitory activity of new hexa-substituted C8-glycomimetics” (Beilstein Journal of Organic Chemistry, 2005)

Assays:
Assay in all cases: glycosidase inhibition assay
Details in all cases: read-out: % inhibition at 1 mM
[1] = molecular target: T1, amyloglucosidase from Aspergillus niger (Aspergillus niger, UniProt P69328); type: biochemical
T1 construct: gene GLAA; commercial native enzyme preparation
Source text: glycosidase inhibition assay on amyloglucosidase from Aspergillus niger

[2] = molecular target: T2, α-D-mannosidase from Jack beans (Canavalia ensiformis, UniProt C0HJB3); type: biochemical
T2 construct: commercial native enzyme preparation
T2 sequence (C0HJB3 1-562): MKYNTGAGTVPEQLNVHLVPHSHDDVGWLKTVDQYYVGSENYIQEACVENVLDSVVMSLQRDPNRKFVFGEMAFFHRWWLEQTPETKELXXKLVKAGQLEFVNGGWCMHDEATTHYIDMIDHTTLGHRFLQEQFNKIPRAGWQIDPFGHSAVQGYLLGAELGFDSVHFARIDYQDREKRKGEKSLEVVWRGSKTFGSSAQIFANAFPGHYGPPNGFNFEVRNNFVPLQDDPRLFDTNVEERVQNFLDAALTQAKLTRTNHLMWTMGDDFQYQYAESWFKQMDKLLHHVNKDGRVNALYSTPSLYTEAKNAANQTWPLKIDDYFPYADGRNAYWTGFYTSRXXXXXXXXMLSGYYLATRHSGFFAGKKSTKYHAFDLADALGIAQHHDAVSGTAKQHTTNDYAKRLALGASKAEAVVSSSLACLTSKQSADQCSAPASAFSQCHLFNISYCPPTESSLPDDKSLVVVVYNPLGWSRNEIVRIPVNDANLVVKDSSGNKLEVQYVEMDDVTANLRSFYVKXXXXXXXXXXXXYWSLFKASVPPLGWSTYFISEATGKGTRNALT
T2 sequence (C0HJB3 563-981): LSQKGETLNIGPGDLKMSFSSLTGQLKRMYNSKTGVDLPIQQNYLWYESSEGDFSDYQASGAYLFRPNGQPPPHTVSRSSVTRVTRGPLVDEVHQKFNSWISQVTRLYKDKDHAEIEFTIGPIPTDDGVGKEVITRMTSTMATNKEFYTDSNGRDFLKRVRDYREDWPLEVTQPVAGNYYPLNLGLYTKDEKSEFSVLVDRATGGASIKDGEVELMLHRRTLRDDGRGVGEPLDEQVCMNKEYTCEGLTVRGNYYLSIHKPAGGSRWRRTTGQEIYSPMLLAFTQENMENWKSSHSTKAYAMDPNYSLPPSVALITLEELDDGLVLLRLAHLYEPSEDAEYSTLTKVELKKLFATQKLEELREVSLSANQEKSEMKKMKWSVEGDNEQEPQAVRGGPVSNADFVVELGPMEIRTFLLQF
Source text: glycosidase inhibition assay on α-D-mannosidase from Jack beans

[3] = molecular target: T3, α-L-fucosidase from bovine kidney (Bos taurus, UniProt Q2KIM0); type: biochemical
T3 construct: gene FUCA1; commercial native enzyme from kidney
T3 sequence (Q2KIM0 23-468): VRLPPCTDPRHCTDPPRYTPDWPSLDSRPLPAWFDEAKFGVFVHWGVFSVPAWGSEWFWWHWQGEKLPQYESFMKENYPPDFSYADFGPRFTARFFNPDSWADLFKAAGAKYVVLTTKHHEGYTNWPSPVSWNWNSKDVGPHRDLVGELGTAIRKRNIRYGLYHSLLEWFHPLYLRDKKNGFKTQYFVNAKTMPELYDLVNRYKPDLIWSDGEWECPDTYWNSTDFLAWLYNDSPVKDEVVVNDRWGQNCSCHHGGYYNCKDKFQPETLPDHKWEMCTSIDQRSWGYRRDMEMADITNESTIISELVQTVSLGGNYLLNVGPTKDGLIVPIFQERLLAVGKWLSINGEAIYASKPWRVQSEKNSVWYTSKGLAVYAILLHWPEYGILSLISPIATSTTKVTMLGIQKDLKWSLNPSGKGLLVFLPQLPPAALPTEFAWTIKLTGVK
Source text: glycosidase inhibition assay on α-L-fucosidase from bovine kidney

[4] = molecular target: T4, α-D-glucosidase from Bacillus stearothermophilus (Geobacillus stearothermophilus, UniProt A0ACH1E9U3)
T4 construct: gene QSJ10_02665
T4 sequence (A0ACH1E9U3 1-555): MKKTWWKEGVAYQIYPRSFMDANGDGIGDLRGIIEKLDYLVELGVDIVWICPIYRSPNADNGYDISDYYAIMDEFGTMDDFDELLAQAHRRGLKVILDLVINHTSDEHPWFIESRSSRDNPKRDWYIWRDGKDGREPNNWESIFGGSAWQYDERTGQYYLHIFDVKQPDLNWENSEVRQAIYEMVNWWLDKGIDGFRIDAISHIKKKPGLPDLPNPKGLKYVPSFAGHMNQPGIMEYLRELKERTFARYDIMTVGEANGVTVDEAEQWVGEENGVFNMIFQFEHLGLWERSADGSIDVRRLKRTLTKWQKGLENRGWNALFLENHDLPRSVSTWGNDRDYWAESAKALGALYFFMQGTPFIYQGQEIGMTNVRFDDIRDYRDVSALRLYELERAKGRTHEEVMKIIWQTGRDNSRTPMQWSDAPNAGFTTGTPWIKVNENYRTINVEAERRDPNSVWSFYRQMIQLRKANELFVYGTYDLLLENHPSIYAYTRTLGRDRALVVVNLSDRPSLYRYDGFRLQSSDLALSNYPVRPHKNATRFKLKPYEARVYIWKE
Source text: glycosidase inhibition assay on α-D-glucosidase from Bacillus stearothermophilus

T1 sequence (P69328 25-640): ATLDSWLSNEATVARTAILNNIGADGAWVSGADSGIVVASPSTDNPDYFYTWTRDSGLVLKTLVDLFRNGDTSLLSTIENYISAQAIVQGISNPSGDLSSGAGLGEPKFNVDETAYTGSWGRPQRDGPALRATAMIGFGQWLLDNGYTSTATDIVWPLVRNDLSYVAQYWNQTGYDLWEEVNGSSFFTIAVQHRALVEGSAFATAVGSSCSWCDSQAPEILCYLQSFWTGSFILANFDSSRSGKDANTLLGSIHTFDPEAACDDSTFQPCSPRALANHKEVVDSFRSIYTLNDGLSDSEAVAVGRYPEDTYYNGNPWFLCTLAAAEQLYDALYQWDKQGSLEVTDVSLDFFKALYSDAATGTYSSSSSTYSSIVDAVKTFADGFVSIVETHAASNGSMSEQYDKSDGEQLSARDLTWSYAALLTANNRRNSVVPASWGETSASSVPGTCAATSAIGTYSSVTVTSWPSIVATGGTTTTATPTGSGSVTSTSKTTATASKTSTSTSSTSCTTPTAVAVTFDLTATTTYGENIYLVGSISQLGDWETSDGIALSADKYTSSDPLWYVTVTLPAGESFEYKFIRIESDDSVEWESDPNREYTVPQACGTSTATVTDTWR

`OCC(CO)N[C@H]1C[C@H](O)[C@@H](O)[C@H](O)[C@@H](O)C[C@@H]1O` [compound 19, C8-voglibose mimetic 19] gave an inhibition at 1000 µM [1] of 27% and an inhibition at 1000 µM [2] of 10%.

`N[C@@H]1C[C@@H](O)[C@@H](O)[C@H](O)[C@H](O)C[C@H]1O` [compound 16, aminocyclitol 16] gave an inhibition at 1000 µM [2] of 8%.

Compound `N[C@H]1C[C@H](O)[C@@H](O)[C@H](O)[C@@H](O)C[C@@H]1O` [compound 15, aminocyclitol 15] has an inhibition at 1000 µM [1] of 28% and an inhibition at 1000 µM [2] of 16%.

With `O[C@H]1[C@H](O)[C@H](O)C[C@H](O)[C@H](O)C[C@H]1O` [compound 6, C8 hexa-substituted carbasugar 6] the inhibition at 1000 µM [3] was 13%.

Work on `OCC(CO)N[C@@H]1C[C@@H](O)[C@@H](O)[C@H](O)[C@H](O)C[C@H]1O` [compound 20, aminocyclitol 20] yielded an inhibition at 1000 µM [4] of 6%, an inhibition at 1000 µM [1] of 29% and an inhibition at 1000 µM [2] of 8%.

For `O[C@H]1[C@H](O)[C@@H](O)C[C@H](O)[C@H](O)C[C@@H]1O` [compound 5, C8 hexa-substituted carbasugar 5], the inhibition at 1000 µM [4] was 9% and the inhibition at 1000 µM [3] was 14%.
